Results published in ChEMBL document CHEMBL1649421, “New drug-like hydroxyphenylnaphthol steroidomimetics as potent and selective 17β-hydroxysteroid dehydrogenase type 1 inhibitors for the treatment of estrogen-dependent diseases” (J Med Chem, 2011).

How the values were obtained:
[1] = Cmax in Wistar rat at 50 mg/kg, po administered as single dose by LC-MS/MS analysis; type: ADME, organism-based; design: dose 50 mg/kg, route oral; details: in vivo
[2] = target: T1, 17-beta-hydroxysteroid dehydrogenase type 1 (Homo sapiens) (UniProt P14061); experiment: Inhibition of [3H]E1 binding to human recombinant 17beta-HSD1 expressed in baculovirus-infected Sf9 cells at 100 nM after 10 mins by fluid scintillation counting
T1 sequence (whole entry): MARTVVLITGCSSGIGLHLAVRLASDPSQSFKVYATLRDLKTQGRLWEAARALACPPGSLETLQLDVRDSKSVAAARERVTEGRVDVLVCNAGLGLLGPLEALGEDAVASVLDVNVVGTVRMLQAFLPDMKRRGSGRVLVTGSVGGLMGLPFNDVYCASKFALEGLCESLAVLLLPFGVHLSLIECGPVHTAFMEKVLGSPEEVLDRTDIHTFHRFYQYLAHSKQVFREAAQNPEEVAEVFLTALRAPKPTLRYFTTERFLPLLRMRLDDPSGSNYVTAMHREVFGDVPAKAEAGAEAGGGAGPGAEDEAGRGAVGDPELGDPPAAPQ

[3] = target: T1, 17-beta-hydroxysteroid dehydrogenase type 1 (Homo sapiens); experiment: Inhibition of [3H]E1 binding to human recombinant 17beta-HSD1 expressed in baculovirus-infected Sf9 cells at 1 uM after 10 mins by fluid scintillation counting
[4] = target: T2, 17-beta-hydroxysteroid dehydrogenase type 2 (Homo sapiens) (UniProt P37059); experiment: Inhibition of [3H]E2 binding to human recombinant 17beta-HSD2 expressed in baculovirus-infected Sf9 cells at 100 nM after 10 mins by fluid scintillation counting
T2 sequence (whole entry): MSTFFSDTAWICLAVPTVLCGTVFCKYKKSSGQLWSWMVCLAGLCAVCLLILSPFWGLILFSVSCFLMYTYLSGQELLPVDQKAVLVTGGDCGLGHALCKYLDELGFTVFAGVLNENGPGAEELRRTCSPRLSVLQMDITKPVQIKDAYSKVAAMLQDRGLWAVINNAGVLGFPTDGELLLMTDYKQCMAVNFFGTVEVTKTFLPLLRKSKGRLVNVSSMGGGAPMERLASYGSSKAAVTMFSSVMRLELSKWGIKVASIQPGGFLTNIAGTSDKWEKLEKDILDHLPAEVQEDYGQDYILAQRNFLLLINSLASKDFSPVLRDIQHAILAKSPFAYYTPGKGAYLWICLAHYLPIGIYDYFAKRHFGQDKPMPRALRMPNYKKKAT

[5] = target: T2, 17-beta-hydroxysteroid dehydrogenase type 2 (Homo sapiens); experiment: Inhibition of [3H]E2 binding to human recombinant 17beta-HSD2 expressed in baculovirus-infected Sf9 cells at 1 uM after 10 mins by fluid scintillation counting
[6] = target: T3, 17-beta-hydroxysteroid dehydrogenase type 2 (Homo sapiens, UniProt P37059); experiment: Displacement of [3H]E2 from human placental 17beta-HSD2 after 10 mins by fluid scintillation counting
T3 sequence (P37059 whole entry): T2 sequence (whole entry)

[7] = target: T4, 17-beta-hydroxysteroid dehydrogenase type 1 (Homo sapiens, UniProt P14061); experiment: Displacement of [3H]E1 from human placental 17beta-HSD1 after 10 mins by fluid scintillation counting
T4 sequence (P14061 whole entry): T1 sequence (whole entry)

Homo sapiens = species on record: Homo sapiens; experiment: Selectivity ratio of IC50 for human placental 17beta-HSD2 to IC50 for human placental 17beta-HSD1
[8] = target: T4, 17-beta-hydroxysteroid dehydrogenase type 1; experiment: Displacement of [3H]E1 from 17beta-HSD1 in human T47D cells after 10 mins by fluid scintillation counting; type: cell-based
[9] = target: T5, Estrogen receptor (Homo sapiens) (UniProt P03372); experiment: Displacement of [3H]E2 from human recombinant ERalpha by liquid scintillation counting relative to estradiol
T5 sequence (whole entry): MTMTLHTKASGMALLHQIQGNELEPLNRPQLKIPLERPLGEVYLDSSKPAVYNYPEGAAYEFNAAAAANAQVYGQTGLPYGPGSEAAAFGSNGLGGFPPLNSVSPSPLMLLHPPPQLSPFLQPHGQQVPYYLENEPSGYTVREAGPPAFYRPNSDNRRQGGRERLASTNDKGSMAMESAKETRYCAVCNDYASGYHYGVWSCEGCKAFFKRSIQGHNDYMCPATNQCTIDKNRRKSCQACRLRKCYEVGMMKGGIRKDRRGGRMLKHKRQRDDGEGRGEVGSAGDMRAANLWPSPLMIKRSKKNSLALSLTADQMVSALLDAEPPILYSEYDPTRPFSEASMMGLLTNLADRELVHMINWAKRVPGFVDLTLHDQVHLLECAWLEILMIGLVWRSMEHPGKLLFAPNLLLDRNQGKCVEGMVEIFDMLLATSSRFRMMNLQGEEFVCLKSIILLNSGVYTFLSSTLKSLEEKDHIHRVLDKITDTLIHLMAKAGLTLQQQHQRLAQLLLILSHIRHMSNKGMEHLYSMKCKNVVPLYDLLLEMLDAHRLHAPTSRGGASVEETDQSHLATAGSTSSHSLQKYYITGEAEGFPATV

[10] = target: Estrogen receptor beta (Homo sapiens) (UniProt Q92731); experiment: Displacement of [3H]E2 from human recombinant ERbeta by liquid scintillation counting relative to estradiol
[11] = Half life in Sprague-Dawley rat liver microsomes by LC-MS/MS analysis; type: ADME, Microsome
Liver microsomes [12] = experiment: Intrinsic clearance in Sprague-Dawley rat liver microsomes after 60 mins by LC-MS/MS analysis; type: ADME, Microsome; details: 1 h
[13] = Apparent permeability across human Caco2 cells after 180 mins by LC-MS/MS analysis; type: ADME, cell-based; details: Caco-2
Cytochrome P450 1A2 = target: T6, Cytochrome P450 1A2 (Homo sapiens, UniProt P05177); experiment: Inhibition of human CYP1A2; type: ADME
T6 sequence (P05177 whole entry): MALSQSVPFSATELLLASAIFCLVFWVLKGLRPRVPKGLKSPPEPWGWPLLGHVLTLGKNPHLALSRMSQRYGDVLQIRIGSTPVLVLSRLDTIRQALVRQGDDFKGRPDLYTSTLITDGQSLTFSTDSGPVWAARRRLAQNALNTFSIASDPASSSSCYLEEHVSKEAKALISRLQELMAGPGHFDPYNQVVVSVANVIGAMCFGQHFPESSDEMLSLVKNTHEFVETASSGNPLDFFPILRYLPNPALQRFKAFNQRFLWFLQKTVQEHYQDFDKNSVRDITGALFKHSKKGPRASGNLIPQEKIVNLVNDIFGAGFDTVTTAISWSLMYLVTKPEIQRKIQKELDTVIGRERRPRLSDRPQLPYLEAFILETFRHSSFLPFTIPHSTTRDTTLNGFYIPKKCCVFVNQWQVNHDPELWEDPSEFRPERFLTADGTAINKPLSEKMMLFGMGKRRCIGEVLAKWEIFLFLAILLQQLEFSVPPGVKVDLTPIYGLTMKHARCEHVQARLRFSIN

Rattus norvegicus [14] = experiment: Clast in Wistar rat at 50 mg/kg, po administered as single dose by LC-MS/MS analysis; type: ADME, organism-based; design: dose 50 mg/kg, route oral; details: in vivo
[15] = Tmax in Wistar rat at 50 mg/kg, po administered as single dose by LC-MS/MS analysis; type: ADME, organism-based; design: dose 50 mg/kg, route oral; details: in vivo
Rattus norvegicus [16] = experiment: Tlast in Wistar rat at 50 mg/kg, po administered as single dose by LC-MS/MS analysis; type: ADME, organism-based; design: dose 50 mg/kg, route oral; details: in vivo
[17] = Half life in Wistar rat at 50 mg/kg, po administered as single dose by LC-MS/MS analysis; type: ADME, organism-based; design: dose 50 mg/kg, route oral; details: in vivo
[18] = AUC (0 to t) in Wistar rat at 50 mg/kg, po administered as single dose by LC-MS/MS analysis; type: ADME, organism-based; design: dose 50 mg/kg, route oral; details: plasma
Cytochrome P450 2B6 = target: T7, Cytochrome P450 2B6 (Homo sapiens, UniProt P20813); experiment: Inhibition of human CYP2B6; type: ADME
T7 sequence (P20813 whole entry): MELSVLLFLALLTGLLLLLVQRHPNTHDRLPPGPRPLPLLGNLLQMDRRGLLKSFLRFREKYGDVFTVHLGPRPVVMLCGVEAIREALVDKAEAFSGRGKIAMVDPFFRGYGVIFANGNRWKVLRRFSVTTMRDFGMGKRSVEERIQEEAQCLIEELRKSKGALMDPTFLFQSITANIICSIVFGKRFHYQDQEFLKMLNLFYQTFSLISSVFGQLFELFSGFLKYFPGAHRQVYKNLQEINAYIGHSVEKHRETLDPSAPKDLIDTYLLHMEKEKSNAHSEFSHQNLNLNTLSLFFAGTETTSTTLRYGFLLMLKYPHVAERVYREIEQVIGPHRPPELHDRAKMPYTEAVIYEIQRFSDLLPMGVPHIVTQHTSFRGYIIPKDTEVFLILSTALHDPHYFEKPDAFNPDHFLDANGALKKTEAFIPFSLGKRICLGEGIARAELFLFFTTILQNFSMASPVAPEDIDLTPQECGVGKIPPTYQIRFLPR

Cytochrome P450 2C9 = Cytochrome P450 2C9 (Homo sapiens, UniProt P11712); experiment: Inhibition of human CYP2C9; type: ADME
Cytochrome P450 2C19 = Cytochrome P450 2C19 (Homo sapiens, UniProt P33261); experiment: Inhibition of human CYP2C19; type: ADME
Cytochrome P450 2D6 = Cytochrome P450 2D6 (Homo sapiens, UniProt P10635); experiment: Inhibition of human CYP2D6; type: ADME
Cytochrome P450 3A4 = Cytochrome P450 3A4 (Homo sapiens, UniProt P08684); experiment: Inhibition of human CYP3A4; type: ADME
Liver microsomes [19] = experiment: Metabolic stability in human liver microsomes up to 45 mins by LC-MS/MS analysis; type: ADME, Microsome; details: 0.75 h

Chain of Cytochrome P450 2C9 (P11712 whole entry): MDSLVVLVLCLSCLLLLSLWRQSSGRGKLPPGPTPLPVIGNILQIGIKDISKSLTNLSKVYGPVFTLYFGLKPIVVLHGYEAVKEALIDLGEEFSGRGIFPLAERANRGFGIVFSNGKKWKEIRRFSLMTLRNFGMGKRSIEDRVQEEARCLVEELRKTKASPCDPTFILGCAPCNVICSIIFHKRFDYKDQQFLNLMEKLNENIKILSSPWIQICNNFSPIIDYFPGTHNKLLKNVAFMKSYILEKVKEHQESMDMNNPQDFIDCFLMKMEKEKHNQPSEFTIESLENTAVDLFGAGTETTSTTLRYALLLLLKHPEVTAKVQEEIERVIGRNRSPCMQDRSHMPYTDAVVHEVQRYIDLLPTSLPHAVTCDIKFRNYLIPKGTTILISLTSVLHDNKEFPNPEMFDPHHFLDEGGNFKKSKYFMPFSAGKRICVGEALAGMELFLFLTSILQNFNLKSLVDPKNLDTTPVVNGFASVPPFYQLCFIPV
Chain of Cytochrome P450 2D6 (P10635 whole entry): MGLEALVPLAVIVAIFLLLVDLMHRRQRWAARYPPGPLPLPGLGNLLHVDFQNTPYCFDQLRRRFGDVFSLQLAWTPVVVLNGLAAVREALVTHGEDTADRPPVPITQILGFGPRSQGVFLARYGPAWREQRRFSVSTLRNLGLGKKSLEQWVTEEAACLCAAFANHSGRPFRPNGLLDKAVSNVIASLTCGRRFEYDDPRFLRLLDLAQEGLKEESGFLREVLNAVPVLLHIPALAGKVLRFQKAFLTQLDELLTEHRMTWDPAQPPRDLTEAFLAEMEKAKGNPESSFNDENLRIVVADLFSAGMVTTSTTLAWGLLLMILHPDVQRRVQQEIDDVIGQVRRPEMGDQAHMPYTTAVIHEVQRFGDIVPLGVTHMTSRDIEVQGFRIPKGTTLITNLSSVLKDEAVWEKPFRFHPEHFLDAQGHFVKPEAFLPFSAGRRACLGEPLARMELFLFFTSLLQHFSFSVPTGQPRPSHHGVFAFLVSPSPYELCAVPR
Chain of Cytochrome P450 2C19 (P33261 whole entry): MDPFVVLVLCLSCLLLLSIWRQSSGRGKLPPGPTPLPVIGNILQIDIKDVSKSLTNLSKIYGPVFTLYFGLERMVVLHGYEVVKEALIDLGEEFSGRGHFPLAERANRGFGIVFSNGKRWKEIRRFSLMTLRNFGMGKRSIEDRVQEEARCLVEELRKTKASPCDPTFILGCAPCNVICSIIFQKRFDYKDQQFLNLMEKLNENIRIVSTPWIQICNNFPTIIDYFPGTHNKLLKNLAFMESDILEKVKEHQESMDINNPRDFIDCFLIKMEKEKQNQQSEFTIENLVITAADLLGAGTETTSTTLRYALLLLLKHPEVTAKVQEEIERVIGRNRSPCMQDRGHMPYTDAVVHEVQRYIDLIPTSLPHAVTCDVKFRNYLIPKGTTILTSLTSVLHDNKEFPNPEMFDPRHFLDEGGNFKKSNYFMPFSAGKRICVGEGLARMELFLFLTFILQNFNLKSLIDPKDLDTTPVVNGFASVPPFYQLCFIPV
Chain of Cytochrome P450 3A4 (P08684 whole entry): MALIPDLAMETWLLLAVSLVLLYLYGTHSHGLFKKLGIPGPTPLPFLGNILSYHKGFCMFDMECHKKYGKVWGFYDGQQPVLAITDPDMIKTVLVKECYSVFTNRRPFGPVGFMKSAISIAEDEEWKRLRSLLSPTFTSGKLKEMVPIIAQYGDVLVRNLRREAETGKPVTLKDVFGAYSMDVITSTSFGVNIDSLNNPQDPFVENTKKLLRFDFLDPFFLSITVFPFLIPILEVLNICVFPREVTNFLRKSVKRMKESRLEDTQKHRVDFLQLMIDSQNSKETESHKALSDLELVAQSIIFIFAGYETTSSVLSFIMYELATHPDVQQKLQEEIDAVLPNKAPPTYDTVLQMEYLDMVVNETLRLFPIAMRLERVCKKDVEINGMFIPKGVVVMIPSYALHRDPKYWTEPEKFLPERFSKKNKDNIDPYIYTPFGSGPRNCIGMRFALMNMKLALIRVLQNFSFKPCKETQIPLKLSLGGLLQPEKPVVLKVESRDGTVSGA
Chain of Estrogen receptor beta (Homo sapiens) (Q92731 whole entry): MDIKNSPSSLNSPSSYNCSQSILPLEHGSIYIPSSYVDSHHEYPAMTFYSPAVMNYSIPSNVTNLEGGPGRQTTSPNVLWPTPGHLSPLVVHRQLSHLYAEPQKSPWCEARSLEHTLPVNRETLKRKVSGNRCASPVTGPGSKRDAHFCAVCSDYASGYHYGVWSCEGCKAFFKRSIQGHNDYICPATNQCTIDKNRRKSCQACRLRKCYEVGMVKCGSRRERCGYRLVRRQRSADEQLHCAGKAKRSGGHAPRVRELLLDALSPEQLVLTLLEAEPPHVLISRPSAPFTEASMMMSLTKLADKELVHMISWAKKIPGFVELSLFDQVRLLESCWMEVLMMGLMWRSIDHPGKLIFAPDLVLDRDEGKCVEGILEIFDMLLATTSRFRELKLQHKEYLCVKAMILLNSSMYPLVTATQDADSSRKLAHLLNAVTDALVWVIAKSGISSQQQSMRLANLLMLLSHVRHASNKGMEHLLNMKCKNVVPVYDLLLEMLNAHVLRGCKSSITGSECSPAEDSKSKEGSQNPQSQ

SMILES	Cmax [1] [ng/mL]	inhibition [2] [%]	inhibition [3] [%]	inhibition [4] [%]	inhibition [5] [%]	IC50 [6] [nM]	IC50 [7] [nM]	Ratio IC50 (Homo sapiens)	IC50 [8] [nM]	RBA [9] [%]	RBA [10] [%]	half-life [11] [min]	CL (Liver microsomes [12]) [µL/min]	Papp at 3 h [13] [×10⁻⁶ cm/s]	IC50 (Cytochrome P450 1A2) [µM]	IC50 (Cytochrome P450 2B6) [µM]	IC50 (Cytochrome P450 2C9) [nM]	IC50 (Cytochrome P450 2C19) [nM]	IC50 (Cytochrome P450 2D6) [µM]	IC50 (Cytochrome P450 3A4) [nM]	also measured
Oc1cccc(-c2ccc3c(-c4cccnc4)c(O)ccc3c2)c1	16	87	92	66	90	1160	26	45	165	0.01	0.01	14	340	14	0.01						Cz (Rattus norvegicus [14]): 18 ng/mL; Tmax [15]: 2 h; tz (Rattus norvegicus [16]): 8 h; half-life [17]: 90 min; AUC(0-t) [18]: 203 ng·h/mL
Oc1cccc(-c2ccc3c(-c4ccccc4)c(O)ccc3c2)c1				22	77			27	281	0.01	0.01			9.3	7.16	7.96	1640	1410	15.5	2770	
Oc1cccc(-c2ccc3c(-c4cccc(O)c4)c(O)ccc3c2)c1		83	93	< 10	40		36	27	115	0.01	0.01				19	11.8	270	6030	24.8	40	
CS(=O)(=O)Nc1cccc(-c2c(O)ccc3cc(-c4cccc(O)c4)ccc23)c1		88	91	31	71		15	27	71	0.01	< 0.01			19							Stability (Liver microsomes [19]): Stable
COc1ccc(-c2c(O)ccc3cc(-c4cccc(O)c4)ccc23)cn1		86	89	24	67	530				0.01	< 0.01	289		8							
Nc1cccc(-c2c(O)ccc3cc(-c4cccc(O)c4)ccc23)c1	44	74	87	< 10	39		53			0.01	< 0.01	50	93	16	10.5	10.4	1250	680	40	1070	Cz (Rattus norvegicus [14]): 14 ng/mL; Tmax [15]: 2 h; tz (Rattus norvegicus [16]): 8 h; half-life [17]: 96 min; AUC(0-t) [18]: 337 ng·h/mL
